For one molecule, IC50 results are on record in patent publication US12312346B2, “Pyridopyrimidine compounds and methods of their use” (Tufts Medical Center, Inc., priority 2018, dated 2025).

This assay has as its system human leukemia cell line HPBALL (with Notch1 mutations). Description: Cell cycle (PI staining, S-G2-M cells) and cell number, HPBALL. To be noted: Homo sapiens, 144 h; HPBALL, 6 days; read-out: IC50 (inhibition of proliferation, percentage of S-G2-M cells). It counts as cell-based. The protocol:
FIG. 1A is a series of charts showing representative cell cycle profiles of human leukemia cell line HPBALL (with Notch1 mutations) treated with a vehicle (V) (for ribociclib (LEE) or compound GD) or LEE or compound GD for 6 days at 1, 5, 10, and 20 μM.
FIG. 1B is a histogram summarizing the cell cycle distribution of the HPBALL cell line treated with compound GD, as described for FIG. 1A. Data shown are mean±S.D. (n=6); *P<0.05 vs its vehicle controls, t-test.
FIG. 1C is a histogram summarizing the cell cycle distribution of the HPBALL cell line treated with ribociclib (LEE), as described for FIG. 1A. Data shown are mean±S.D. (n=6); *P<0.05 vs its vehicle controls, t-test.
FIG. 1D is a chart the percentage of S-G2-M cells in FIGS. 1B and 1C. IC50 is the concentration of an inhibitor where the response (here is the inhibition of proliferation) is reduced by half.
FIG. 1E is a bar graph summarizing the cell numbers of HPBALL cells treated with either GD with different doses or LEE (20 μM) for 6 days. Data shown are mean±S.D. (n=6); *P<0.05 vs vehicles (0) control, t-test.
HCl salt of 6-acetyl-5-methyl-2-((4-(piperazin-1-ylmethyl)thiazol-2-yl)amino)pyrido[2,3-d]pyrimidin-7(8H)-one (Compound GD) prepared in Example 1 was examined for its inhibitory activity in cancer cell lines and WT and CDK6^−/− mouse embryonic fibroblasts (MEFs) and stromal vascular fractions (SVFs). […]
Table 2: Experimental Procedures: sensitivity to CDK6 kinase activity inhibition was tested by incubating different cell lines in the presence of CDK6 inhibitor GD007/PBS for either 24 hours for detecting the status of pRB-780 phosphorylation, or 5 days for determining the effect of GD007 on cell proliferation. (1) By immunoblotting (WB), we will detect phospho-pRB-S^780, one of the substrates of CDK6 kinase; (2) By using FACS analysis, we will stain treated cells with Propidium Iodide (PI), a commonly used fluorescent intercalator, to measure the subpopulation of cell cycle to reveal any impact of CDK6 inhibition on cell proliferation; (3) cell numbers will be counted using hemocytometer.

In the case of `CN(C)C(=O)c1cc2cnc(Nc3ccc(N4CCNCC4)cn3)nc2n1C1CCCC1` [LEE, ribociclib, reference compound], the IC50 is around 12 µM.
